According to patent US12497394B2, “Fused-cyclic pyrazolone formamide compound and preparation method therefor, pharmaceutical composition and use thereof” (SHANGHAI INSTITUTE OF MATERIA MEDICA, CHINESE ACADEMY OF …, priority 2018, dated 2025):

Target: T1, receptor tyrosine kinase AXL (Homo sapiens, UniProt P30530)
T1 construct: 50 μL of AXL kinase domain recombinant protein diluted in reaction buffer was added to start the reaction; made in house; host or cells: insect cells (baculovirus expression system)
T1 sequence (P30530 536-807 limits assumed): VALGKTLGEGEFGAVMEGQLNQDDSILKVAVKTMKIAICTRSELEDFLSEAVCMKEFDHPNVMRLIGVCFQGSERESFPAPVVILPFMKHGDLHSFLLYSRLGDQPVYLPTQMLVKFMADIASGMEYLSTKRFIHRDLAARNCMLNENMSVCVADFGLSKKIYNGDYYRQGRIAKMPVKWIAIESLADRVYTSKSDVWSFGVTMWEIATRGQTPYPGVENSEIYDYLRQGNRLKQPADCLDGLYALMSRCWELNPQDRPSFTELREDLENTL
Experiment: Enzyme activity of receptor tyrosine kinase AXL (ELISA)
Format: biochemical
Details: for inhibition at 0.001 µM: 1 nM; for inhibition at 0.001 µM / inhibition at 0.01 µM / inhibition at 0.1 µM / inhibition at 1 µM: read-out: AXL activity Inhibitory rate(%); for inhibition at 0.01 µM: 10 nM; for inhibition at 0.1 µM: 100 nM; for inhibition at 1 µM: 1000 nM; for AXL activity (in words): at 1000, 100, and 10 nM
Method: Detection method: Enzyme-linked immunosorbent assay (ELISA)
Tested receptor tyrosine kinase: AXL
The full-wavelength microplate reader for experiment reading was a product of Molecular Device, model: SpectraMax 190; the experiment water was distilled water produced by Sinopharm Group.
Compound preparation: The compounds were centrifuged at 12,000 g for 5 min, and DMSO was added to prepare a 10^−2M stock solution, vortexed evenly and sonicated for 10 min for use, and stored at −40° C. During the test, the compound was diluted from the stock solution to 100 times the tested concentration with DMSO (the DMSO concentration in the system was 1%).
1. […] Discard the liquid from the well. The plate was washed and washed three times with T-PBS (0.1% Tween-20 in potassium-free PBS, 200 μL/well) for 5 minutes each time.
2. 49 μL of ATP solution diluted with reaction buffer (50 mM HEPES pH 7.4, 50 mM MgCl2, 0.5 mM MnCl2, 0.2 mM Na3VO4, 1 mM DTT) was added to each well, and […] of the tested compound was added to each well, and then 50 μL of AXL kinase domain recombinant protein diluted in reaction buffer was added to start the reaction. Two control wells without ATP were added in each experiment. (100 rpm) Reacted in 37° C. shaker for 1 hour. Discard the liquid from the well, and the plate was washed with T-PBS for three times.
3. […] Discard the liquid from the well, and the plate was washed with T-PBS for three times.
4. The horseradish peroxidase-labeled goat anti-mouse second antibody dilution (antibody diluted 1:2000 with BSA 5 mg/mL in T-PBS), 100 μL/well, and reacted in 37° C. shaker for 0.5 hours. Discard the liquid from the well, and the plate was washed with T-PBS for three times.
6. The reaction was quenched with 50 μL/well 2M […], and read at 490 nm using a tunable microplate reader VERSAmax.
The IC50 values were obtained by four-parameter regression analysis using the software supplied with the microplate reader.

| Structure (SMILES) | inhibition at 0.001 µM [%] | inhibition at 0.01 µM [%] | inhibition at 0.1 µM [%] | inhibition at 1 µM [%] | AXL activity (in words) |
| --- | --- | --- | --- | --- | --- |
| COc1cc2ncnc(Oc3ccc(NC(=O)c4c5n(n(-c6cc(F)ccc6F)c4=O)CCCC5)cc3C(F)(F)F)c2cc1OC [DC621081, 1-(2,5-difluorophenyl)-N-(4-((6,7-dimethoxyquinazoline-4-yl)oxy)-3-trifluoromethylphenyl)-2-oxo-1,2,4,5,6,7-hexahydropyrazolo[1,5-a]pyridine-3-formamide] | 16.3 | 34.9 | 79.2 | – | – |
| COc1nc(OC)nc(Oc2ccc(NC(=O)c3c4n(n(-c5ccccc5)c3=O)CCCC4)cc2)n1 [DC621003, N-(4-((4,6-dimethoxy-1,3,5-triazine-2-yl)oxy)phenyl)-2-oxo-1-phenyl-1,2,4,5,6,7-hexahydro[1,5-a]pyridine-3-formamide, reference compound] | – | -15.5 | 2.8 | -7.2 | almost no activity |
| O=C(Nc1ccc(Oc2ncnc3cc4c(cc23)OCCOCCOCCO4)c(Cl)c1)c1c2n(n(-c3cc(F)ccc3F)c1=O)CCCC2 [DC621064, 1-(2,5-difluorophenyl)-N-(3-chloro-4-((7,8,10,11,13,14-hexahydro-[1,4,7,10]tetraoxacyclododecane [2,3-g]quinazolin-4-yl)oxy)phenyl)-2-oxo-1,2,4,5,6,7-hexahydropyrazolo[1,5-a]pyridine-3-formamide] | 30.8 | 47.4 | 83.4 | – | – |
| O=C(Nc1ccc(Oc2ncnc3cc4c(cc23)OCCOCCOCCO4)c(F)c1)c1c2n(n(-c3ccccc3F)c1=O)CCCC2 [DC621065, N-(3-fluoro-4-((7,8,10,11,13,14-hexahydro-[1,4,7,10]tetraoxacyclododecane [2,3-g]quinazolin-4-yl)oxy)phenyl)-1-(2-fluorophenyl)-2-oxo-1,2,4,5,6,7-hexahydropyrazolo[1,5-a]pyridine-3-formamide] | 29.6 | 45.8 | 95 | – | – |
| COCCOc1cc2ncnc(Oc3ccc(NC(=O)c4c5n(n(-c6ccccc6F)c4=O)CCCC5)cc3Cl)c2cc1OCCOC [DC621090, N-(4-((6,7-bis(2-methoxyethoxy)quinazolin-4-yl)oxy)-3-chlorophenyl)-1-(2-fluorophenyl)-2-oxo-1,2,4,5,6,7-hexahydropyrazolo[1,5-a]pyridine-3-formamide] | 21.1 | 62.9 | 92.7 | – | – |
| Cc1nccc(Oc2ccc(NC(=O)c3c4n(n(-c5ccccc5)c3=O)CCCC4)cc2)n1 [DC621005, N-(4-((2-methylpyrimidine-4-yl)oxy)phenyl)-2-oxo-1-phenyl-1,2,4,5,6,7-hexahydro[1,5-a]pyridine-3-formamide, reference compound] | – | -14.6 | 18.3 | -7.8 | almost no activity |
| COCCOc1cc2ncnc(Oc3ccc(NC(=O)c4c5n(n(-c6ccccc6)c4=O)CCCC5)cc3Cl)c2cc1OCCOC [DC621070, N-(4-((6,7-bis(2-methoxyethoxy)quinazolin-4-yl)oxy)-3-chlorophenyl)-2-oxo-1-phenyl-1,2,4,5,6,7-hexahydropyrazolo[1,5-a]pyridine-3-formamide] | 2.4 | 60.5 | 91.1 | – | – |
